Assay type in all cases: biochemical
Test [1] has as its system α-isomaltosyl-transferring enzyme from Bacillus globisporus C9. Kind of test: Influence of metal ions on enzyme activity. The note with it: enzyme of Strain C9; for Relative activity: 1 mM metal ion; for Effect on enzyme activity: 1 mM. How it is done:
(§1) The activity of the enzyme was assayed by dissolving panose in 100 mM acetate buffer (pH 6.0) to give a concentration of two percent (w/v) for a substrate solution, adding a 0.5 ml of an enzyme solution to a 0.5 ml of the substrate solution, enzymatically reacting the mixture solution at 35° C. for 30 min, suspending the reaction mixture by boiling for 10 min, and quantifying glucose by the glucose oxidation method. One unit activity of the α-isomaltosyl-transferring enzyme is defined as the enzyme amount that forms one micromole of glucose per minute under the above enzymatic reaction conditions. Throughout the specification, the enzymatic activity of the α-isomaltosyl-transferring enzyme means the unit(s) assayed as above.
The influence of metal ions on the activity of α-isomaltosyl-transferring enzyme was examined in the presence of 1 mM of each metal-ion according to the assay for the enzyme activity.

Test [2] concerns α-isomaltosyl-transferring enzyme from Arthrobacter ramosus S1. As to the kind of experiment: Influence of metal ions on enzyme activity. Conditions: enzyme of Strain S1; for Relative activity: 1 mM metal ion; for Effect on enzyme activity: 1 mM. How it is done:
as §1
(§2) The influence of metal ions on the activity of α-isomaltosyl-transferring enzyme was examined in the presence of 1 mM of a metal ion according to the assay for the enzyme activity.

Test [3] relates to α-isomaltosyl-transferring enzyme from Bacillus globisporus C11. Kind of test: Influence of metal ions on enzyme activity. Conditions: enzyme of Strain C11; for Relative activity: 1 mM metal ion; for Effect on enzyme activity: 1 mM. On the procedure:
as §1, §2

The test system of test [4] is α-isomaltosyl-transferring enzyme from Bacillus globisporus N75. How it is done:
as §1, §2

Test [5] deals with α-isomaltosyl-transferring enzyme from Arthrobacter globiformis A19. Kind of test: Action on saccharides (substrates, TLC). More on the design: key: −: there was found no substrate change before and after the enzymatic reaction; +: there were found both the reduction of substrate and the formation of cyclotetrasaccharide after the enzymatic reaction. Conditions: partially purified enzyme, 2 units/g substrate, 2% (w/v) substrate, 30° C., pH 6.0, 24 hours. In a few lines:
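Purified enzyme (partially purified for A. globiformis A19) at 2 units/g substrate acted on each saccharide at 2% (w/v), pH 6.0, 30° C., 24 h. Pre- and post-reaction mixtures ran on silica gel TLC in n-butanol/pyridine/water (6:4:1). Total sugars were stained by sulfuric acid-methanol and reducing sugars by diphenylamine-aniline.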

The subject of test [6] is α-isomaltosyl-transferring enzyme from Arthrobacter ramosus S1. Kind of test: Action on saccharides (substrates, TLC). More on the design: key: −: there was found no substrate change before and after the enzymatic reaction; +: there were found both the reduction of substrate and the formation of cyclotetrasaccharide after the enzymatic reaction. The note with it: 2 units/g substrate, 2% (w/v) substrate, 30° C., pH 6.0, 24 hours. In a few lines:
(§3)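 TLC detection used sulfuric acid-methanol coloration for all sugars and diphenylamine-aniline for reducing ones, after development in n-butanol/pyridine/water (6:4:1). Reactions contained 2% (w/v) substrate and 2 units/g substrate of purified enzyme, incubated 24 hours at 30° C., pH 6.0.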

Test [7] relates to α-isomaltosyl-transferring enzyme from Bacillus globisporus N75. As to the kind of experiment: Action on saccharides (substrates, TLC). On the set-up: key: −: there was found no substrate change before and after the enzymatic reaction; +: there were found both the reduction of substrate and the formation of cyclotetrasaccharide after the enzymatic reaction. The note with it: 2 units/g substrate, 2% (w/v) substrate, 30° C., pH 6.0, 24 hours. Summed up: as §3

Test [8] concerns α-isomaltosyl-transferring enzyme from Bacillus globisporus C9. Kind of test: Action on saccharides (substrates, TLC). More on the design: key: −: there was found no substrate change before and after the enzymatic reaction; +: there were found both the reduction of substrate and the formation of cyclotetrasaccharide after the enzymatic reaction. Conditions: 2 units/g substrate, 2% (w/v) substrate, 30° C., pH 6.0, 24 hours. In a few lines:
as §3

In test [9] the test system is α-isomaltosyl-transferring enzyme from Bacillus globisporus C11. As to the kind of experiment: Action on saccharides (substrates, TLC). On the set-up: key: −: there was found no substrate change before and after the enzymatic reaction; +: there were found both the reduction of substrate and the formation of cyclotetrasaccharide after the enzymatic reaction. Conditions: 2 units/g substrate, 2% (w/v) substrate, 30° C., pH 6.0, 24 hours. In a few lines: as §3

For test [10], the system named is α-isomaltosyl-transferring enzyme from Bacillus globisporus C9. As to the kind of experiment: Formation of reducing power from high molecular glucans. Conditions: Enzyme of Strain C9. How it is done:
(§4) In the above experiment, no detectable amount of a lower molecular weight saccharide such as cyclotetrasaccharide detectable on TLC was formed from soluble starch, pullulan and dextran as high molecular glucans. The following test was carried out to confirm that the α-isomaltosyl-transferring enzyme of the present invention neither increase the reducing power of the above high molecular glucans nor hydrolyze them. To a solution of soluble starch, pullulan or dextran was added 12 units/g substrate of a purified specimen of α-isomaltosyl-transferring enzyme from either Bacillus globisporus C9 obtained by the method in Experiment 4, Bacillus globisporus C11 obtained by the method in Experiment 7, Bacillus globisporus N75 obtained by the method in Experiment 11, or Arthrobacter ramosus S1 obtained by the method in Experiment 15. […] The reducing saccharide contents and the total sugar contents in the resulting reaction mixtures after the enzymatic reactions were respectively quantified by the Somogyi-Nelson's method and the anthrone-sulfuric acid reaction method. The percentage of forming reducing power was calculated by the following equation, and the results are in Table 13:
(§5) [formula] [formula] AR: Reducing sugar content after enzymatic reaction. AT: Total sugar content after enzymatic reaction. BR: Reducing sugar content before enzymatic reaction. BT: Total sugar content before enzymatic reaction.

Test [11] deals with α-isomaltosyl-transferring enzyme from Bacillus globisporus C11. The test is described as above. Conditions: Enzyme of Strain C11. How it is done: as §4, §5
Test [12] has as its system α-isomaltosyl-transferring enzyme from Arthrobacter ramosus S1. Described as above. Conditions: printed Enzyme of Strain N75 a second time. How it is done:
(§6) In the above experiment, no detectable amount of a lower molecular weight saccharide such as cyclotetrasaccharide detectable on TLC was formed from soluble starch, pullulan and dextran as high molecular glucans. The following test was carried out to confirm that the α-isomaltosyl-transferring enzyme of the present invention neither increase the reducing power of the above high molecular glucans nor hydrolyze them. To a solution of soluble starch, pullulan or dextran was added 12 units/g substrate of a purified specimen of α-isomaltosyl-transferring enzyme from either Bacillus globisporus C9 obtained by the method in Experiment 4, Bacillus globisporus C11 obtained by the method in Experiment 7, Bacillus globisporus N75 obtained by the method in Experiment 11, or Arthrobacter ramosus S1 obtained by the method in Experiment 15. The resulting each solution was adjusted to give a substrate concentration of one percent (w/v) and incubated at 35° C. and pH 6.0 for four hours. The reducing saccharide contents and the total sugar contents in the resulting reaction mixtures after the enzymatic reactions were respectively quantified by the Somogyi-Nelson's method and the anthrone-sulfuric acid reaction method. The percentage of forming reducing power was calculated by the following equation, and the results are in Table 13:
as §5

The subject of test [13] is α-isomaltosyl-transferring enzyme from Bacillus globisporus N75. Described as above. The note with it: Enzyme of Strain N75. How it is done:
as §6, §5

Setting [14] is: 1 mM metal ion, enzyme of Strain N75.
[15] abbreviates: 0 hr, 12 units/g substrate, 1% (w/v), 35° C., pH 6.0.

Like-named read-outs stand apart in the source and are kept apart here.

For the molecule `[Al+3]` [Al^3+], the Relative activity came out at 103% in test [1], 93% in test [2], 89% in test [3] and 94% in test [4] (setting [14]).
As to `[Ba+2]` [Ba^2+], the Relative activity is given as 102% in test [1], 97% in test [2], 90% in [3] and 102% in [4] (setting [14]).
Regarding `[Ca+2]` [Ca^2+], the Relative activity in test [1] was 101%; in [2], 103%; in test [3], 91%; in test [4] (setting [14]) it was 100%. Also, the “Effect on enzyme activity” value was “neither activated” in [1]; “neither activated” in test [2]; “neither activated” in test [3]; “neither activated” in test [4] (1 mM, enzyme of Strain N75).
For the molecule `[Co+2]` [Co^2+], the Relative activity in test [1] is on record as 103%; in test [2] it was 91%; in test [3], 89%; in test [4] (setting [14]) it was 92%.
With `[Cu+2]` [Cu^2+], the Relative activity stood at 57% in test [1], 2% in test [2], 56% in test [3] and 15% in test [4] (setting [14]). Further, the “Effect on enzyme activity” value is “also inhibited” in test [1]; “also inhibited” in test [2]; “also inhibited” in test [3]; “also inhibited” in [4] (1 mM, enzyme of Strain N75).
Consider `O=C(O)CN(CCN(CC(=O)O)CC(=O)O)CC(=O)O` [EDTA], for which the Relative activity came out at 104% in [1], 91% in test [2], 98% in test [3] and 92% in test [4]. For the same molecule, the “Effect on enzyme activity” value in test [1], in [2], in test [3] and in [4] was “nor inhibited” in each case.
Consider `[Fe+2]` [Fe^2+], for which the Relative activity in test [1] worked out at 96%; in test [1] (listed as Fe^3+) it was 105%; in test [2], 105%; in [2] (listed as Fe^3+), 75%.
Take `[Hg+2]` [Hg^2+]: the Relative activity in [1] is 1%; in test [2] it was 0.1%; in test [3] it was 2%; in test [4] (setting [14]), 0.5%. Moreover, the “Effect on enzyme activity” value in test [1] was “greatly inhibited”; in test [2], “greatly inhibited”; in test [3], “greatly inhibited”; in test [4] (1 mM, enzyme of Strain N75) it was “greatly inhibited”.
Regarding `[Mg+2]` [Mg^2+], the values for the Relative activity in [2], in [3] and in test [4] (setting [14]) were 99%, 91% and 95%, respectively.
`[Mn+2]` [Mn^2+]: the Relative activity in test [1] was 106%; in test [3] it was 93%; in test [4] (setting [14]), 101%.
As to `[Ni+2]` [Ni^2+], the Relative activity was 102% in test [1], 87% in test [2], 89% in test [3] and 91% in test [4] (setting [14]).
As to `[Pb+2]` [Pb^2+], the Relative activity in test [1] was found to be 89%; in [2] it was 85%; in [3] it was 74%; in test [4] (setting [14]), 69%.
For `[Sr+2]` [Sr^2+], in that order: 101%, 101%, 93% and 91%.
`[Zn+2]` [Zn^2+]: the Relative activity in test [1] was 88%; in [2], 78%; in test [3] it was 83%; in test [4] (setting [14]), 75%.
For dextran, the “Enzymatic action for forming cyclotetrasaccharide, Enzyme of Strain A19” value in test [5] is given as “−”. Further, the “Enzymatic action for forming cyclotetrasaccharide, Enzyme of Strain S1” value in test [6] is listed as “−”. For the same molecule, in [7], the “Enzymatic action for forming cyclotetrasaccharide, Enzyme of Strain N75” value is listed as “−”. Further, the “Enzymatic action for forming cyclotetrasaccharide, Enzyme of Strain C9” value in test [8] was “−”. Also, in [9], the “Enzymatic action for forming cyclotetrasaccharide, Enzyme of Strain C11” value is on record as “−”. Also, the “Percentage of forming reducing power” value in [10] (setting [15]) was 0.0%; in test [10] (1 hr) it was 0.0%; in [10] (2 hr) it was 0.0%; in test [10] (3 hr) it was 0.1%; in test [10] (4 hr) it was 0.0%; in test [11] (setting [15]) it was 0.0%. The “Percentage of forming reducing power” value in test [11] (1 hr), in test [11] (2 hr), in test [11] (3 hr), in test [11] (4 hr), in test [12] (setting [15]) and in test [12] (1 hr) was 0.0% in each case. Moreover, the “Percentage of forming reducing power” value in test [12] (2 hr), in test [12] (3 hr), in [12] (4 hr), in test [13] (setting [15]), in test [13] (1 hr) and in test [13] (2 hr) was 0.0% in each case. Moreover, the “Percentage of forming reducing power” value in test [13] (3 hr) and in test [13] (4 hr) was 0.0% throughout.
